Literature values, collected in patent US20230172203A1, “PLANT METABOLISM PROMOTING COMPOSITIONS AND METHODS OF USE” (Panoptic Ag Solutions LLC, priority 2021, published 2023).

System: tea plants
Details: exogenous application; background statement; cited from earlier work

CNC(=O)CC[C@H](N)C(=O)O [γ-glutamylmethylamide]
quality and yield of tea plants (in words): can improve the quality and yield of tea plants by increasing the number of usable leaves
